Legend:
Androgen receptor = biological target: T1, Androgen receptor (Homo sapiens, UniProt P10275); experiment: Antagonist activity at AR in human MDA-kb2 cells co-transfected with MMTV-luc assessed as decrease in DHT-induced luciferase activity by reporter gene assay; type: functional, cell-based
T1 sequence (P10275 whole entry): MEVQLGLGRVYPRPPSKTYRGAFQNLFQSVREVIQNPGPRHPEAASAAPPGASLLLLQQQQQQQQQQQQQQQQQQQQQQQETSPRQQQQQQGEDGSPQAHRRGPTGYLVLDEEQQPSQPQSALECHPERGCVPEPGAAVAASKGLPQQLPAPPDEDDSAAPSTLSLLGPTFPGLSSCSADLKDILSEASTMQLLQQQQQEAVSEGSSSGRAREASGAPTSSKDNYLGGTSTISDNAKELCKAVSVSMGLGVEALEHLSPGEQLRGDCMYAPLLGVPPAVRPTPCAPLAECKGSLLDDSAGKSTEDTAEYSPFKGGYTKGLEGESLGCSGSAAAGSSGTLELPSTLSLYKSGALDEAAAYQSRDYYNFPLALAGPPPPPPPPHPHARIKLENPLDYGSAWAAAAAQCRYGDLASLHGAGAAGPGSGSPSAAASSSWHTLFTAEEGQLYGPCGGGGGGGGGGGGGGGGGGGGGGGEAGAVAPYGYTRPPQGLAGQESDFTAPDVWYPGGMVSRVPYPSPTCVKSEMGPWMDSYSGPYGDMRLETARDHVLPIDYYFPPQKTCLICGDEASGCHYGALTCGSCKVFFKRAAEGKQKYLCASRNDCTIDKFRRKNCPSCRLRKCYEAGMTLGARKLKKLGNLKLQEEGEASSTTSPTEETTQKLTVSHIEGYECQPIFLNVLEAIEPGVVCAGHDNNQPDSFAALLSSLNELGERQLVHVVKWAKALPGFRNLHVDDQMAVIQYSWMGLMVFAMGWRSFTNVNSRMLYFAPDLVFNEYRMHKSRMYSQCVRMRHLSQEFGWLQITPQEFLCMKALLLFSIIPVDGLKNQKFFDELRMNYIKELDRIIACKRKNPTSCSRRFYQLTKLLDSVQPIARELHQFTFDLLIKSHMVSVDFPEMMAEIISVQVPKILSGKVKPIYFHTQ

Rattus norvegicus [1] = experiment: Drug level in Wistar rat blood at 200 mg/kg; type: ADME, organism-based; set-up: dose 200 mg/kg; settings: in vivo
Rattus norvegicus [2] = experiment: Drug level in Wistar rat blood at 10 g/kg; type: ADME, organism-based; settings: in vivo, 10000 mg/kg

SMILES	IC50 (Androgen receptor; read-out: IC50)	IC50 (Androgen receptor; read-out: pIC50 (converted))	Drug uptake (Rattus norvegicus [1])	Drug uptake (Rattus norvegicus [2])
CC(=O)Cc1ccc(O)cc1	420 µM	417 µM		
CC(C)(C)CC(C)(C)c1ccc(O)cc1			80 ng/mL	
CC(=O)CCc1ccc(O)cc1 [RASPBERRYKETONE]				4000 ng/mL
COc1cc(CCC(C)=O)ccc1O [ZINGERONE]	153 µM	151 µM		

From ChEMBL document CHEMBL1156958, “Effect of essential oils, such as raspberry ketone and its derivatives, on antiandrogenic activity based on in vitro reporter gene assay” (Bioorg Med Chem Lett, 2010)
